Source: the NIST ThermoML archive (doi:10.1016/j.jct.2018.11.025)
Numbers after ± are expanded uncertainties.

Conditions: for Normal melting temperature: DTA

Normal melting temperature (Crystal) [°C]	Normal melting temperature (Crystal 1) [°C]	Triple point temperature (Crystal 2, DSC) [K]	SMILES
243.89 ± 0.7			c1ccc2c(c1)[nH]c1ccccc12 [9H-carbazole]
	98.56 ± 0.7	339.52 ± 0.93	c1ccc2c(c1)ccc1ccccc12 [phenanthrene]
